This is an account of results in US20240299277A1, “COMPOSITION FOR IMPROVING SKIN” (LG HOUSEHOLD & HEALTH CARE LTD., priority 2020, published 2024).

One assay deals with Human skin keratinocytes. Briefly: Hyaluronic acid synthesis promotion in keratinocytes (Hyaluronan ELISA). The following applies: each component 3 μg/mL (3 ppm); 24 hours; medium without EGF and BPE; relative to methanol negative control; average of three. The assay is classed as cell-based. As for the experimental part: Human skin keratinocytes (primary cultured human skin keratinocytes) were purchased from Thermo Fisher Scientific and cultured using Keratinocyte-SFM supplemented with epidermal growth factor (EGF), which is a growth factor, and bovine pituitary extract (BPE). The keratinocytes were dispensed in a 60-mm culture plate at a concentration of 2-5×10^5 cells/mL and cultured for 24 hours. The basal medium with growth factors was removed, and a medium (a medium to which EGF and BPE were not added) having a final concentration of 3 μg/mL (3 ppm) of each component of Comparative Examples 1 to 4 and Examples 1 to 6 was added and cultured for 24 hours. A positive control for inducing hyaluronic acid synthesis was treated with all-trans-retinoic acid to be 100 nM (positive control in Table 5). A cell culture solution was taken and synthesized hyaluronic acid was measured using a Hyaluronan DuoSet ELISA Kit (R&D Systems) and a spectrophotometer.
A calibration curve was created by measuring standard hyaluronic acid at concentrations of 1.1, 3.3, 10, 30, and 90 ng/mL, and based on this, the hyaluronic acid production amounts of Comparative Examples 1 to 4 and Examples 1 to 6, a negative control group, and […] were calculated. The hyaluronic acid production amount was calculated using a hyaluronic acid production rate (%) relative to the group treated with methanol (negative control group) (Equation 2 below), and the experiment was performed three times, and then an average value was calculated and shown in Table 5.

The test system of assay [1] is human-derived fibroblasts. Nature of the assay: Collagen synthesis promotion in fibroblasts (Procollagen 1α1 ELISA). The assay is classed as cell-based. The following applies: each component 3 μg/mL (3 ppm); 24 hours; medium without FBS; relative to methanol negative control; average of three. The protocol:
A mixture of DMEM and 10% FBS was used as a basal medium for culturing human-derived fibroblasts. Skin fibroblasts were dispensed in a 48-well plate at a concentration of 2-5×10^4 cells/mL and cultured for 24 hours. The basal medium with growth factors was removed, and a medium (a medium to which FBS was not added) having a final concentration of 3 μg/mL (3 ppm) of each component of Comparative Examples 1 to 4 and Examples 1 to 6 was added and cultured for 24 hours. A positive control for inducing collagen synthesis was treated with TGF-β to be 5 ng/mL (5 ppb) (positive control in Table 4). A cell culture solution was taken and synthesized collagen was measured using a Human Procollagen 1α1 Duoset ELISA Kit (R&D Systems) and a spectrophotometer.
A calibration curve was created by measuring the separated and purified collagen at concentrations of 0.25, 0.5, 1, 2, 4, and 8 ng/mL, and based on this, the collagen (Type I collagen) production amounts of Comparative Examples 1 to 4 and Examples 1 to 6, a negative control group, and a positive control group were calculated. The collagen production amount was calculated using a collagen production rate (%) relative to the group treated with methanol (negative control group) (Equation 2 below), and the experiment was performed three times, and then an average value was calculated and shown in Table 4.
(In general: ELISA stands for enzyme-linked immunosorbent assay.)

A short description of assay [2]: Free radical scavenging ability by DPPH method. In kind it is biochemical. The note with it: each component 0.5 mg/mL in methanol; DPPH 0.12 mM; 1 hour; absorbance 517 nm; average of three. The protocol: In Comparative Examples 1 to 4 and Examples 1 to 6, a solution was prepared using methanol as a solvent so that the concentration of each component in the solution was 0.5 mg/mL. In order to confirm the antioxidant effect of Comparative Examples 1 to 4 and Examples 1 to 6, free radical scavenging ability was measured using a 1,1-diphenyl-2-picrylhydrazyl (DPPH) method. […] DPPH was used after being dissolved in methanol at a concentration of 0.12 mM.
Comparative Examples 1 to 4, Examples 1 to 6, and Trolox solutions by concentration (0.0125, 0.025, 0.05, 0.1, 0.2, 0.4, 0.8 mg/mL) were each put into a 24-well plate in an amount of 100 μL, and the DPPH solution was added in an amount of 1,900 μL. After blocking the light at room temperature and leaving it for 1 hour, the absorbance at 517 nm was measured using a microplate reader (BioTek EPOCH). A calibration curve according to the concentration was created using the absorbance values of the Trolox solution at 7 concentrations. In this experiment, Trolox is one indicator for measuring the antioxidative capacity of a sample, and the antioxidative capacity of each comparative example and example is a size compared to Trolox. The degree of antioxidant effect shown by 1 mL of the example solution by substituting the absorbance of the example solution into the calibration curve is expressed in Trolox μmol equivalents/mL and summarized in Table 2 below. The experiment was performed three times, and then an average value was calculated and shown.
On the technique in general: The DPPH test is a chemical assay of radical scavenging.

The subject of the next assay is MNT-1 melanoma cells. Briefly: Inhibition of melanin production in MNT-1 melanoma cells. In kind it is cell-based. The following applies: each component 3 μg/mL (3 ppm); 72 hours; relative to methanol negative control; average of three. As for the experimental part:
To culture MNT-1 melanoma cells, a mixture of Dulbecco's Modified Eagle's Medium (DMEM) and 10% fetal bovine serum (FBS) was used as a basal medium. MNT-1 melanoma cells were dispensed in a 6-well plate at a concentration of 1-2×10^5 cells/mL and cultured for 24 hours. Samples were treated so that the final concentration of each component of Comparative Examples 1 to 4 and Examples 1 to 6 was 3 μg/mL (3 ppm), and then cultured for 72 hours. As a positive control, arbutin was treated to be 200 μg/mL (200 ppm) (positive control in Table 3). Thereafter, the cells were treated with trypsin, detached from the culture vessel, centrifuged at 13,000 rpm for 1 minute, and then the supernatant was removed. Cells were lysed by adding 300 μL of a 0.5% Triton X-100 solution to the remaining cells. This was again centrifuged at 13,000 rpm for 3 minutes to recover the pellet and supernatant separately. Melanin in the pellet was dissolved by adding 100 μL of a 0.5 N sodium hydroxide solution and incubating for 12 hours, and absorbance at 450 nm was measured using a spectrophotometer to measure the total amount of melanin produced.
The total amount of inhibited melanin production was calculated as a melanin production inhibition rate (%) relative to a group (negative control group) treated with methanol (Equation 1 below), and the experiment was performed three times, and then an average value was calculated and shown in Table 3.

For the molecule `CCCCC/C=C\C/C=C\CCCCCCCC(=O)O` [compound 4, Linoleic acid], the “Hyaluronic acid Production rate (%)” value with Human skin keratinocytes stood at 4.1%. Further, the “Collagen Production rate (%)” value in assay [1] is −2.5%. The “Trolox μmol equivalents/mL” value in assay [2] is listed as 0.023 Trolox μmol equivalents/mL. The “Melanin production Inhibition rate (%)” value with MNT-1 melanoma cells was determined as 6.7%.
Regarding `C[C@@H]1CC[C@H]2C(C)(C)[C@H]3C[C@@]12CC[C@@]3(C)O` [compound 1, Cedrol], the “Hyaluronic acid Production rate (%)” value in the assay with Human skin keratinocytes amounted to 5.6%. Further, the “Collagen Production rate (%)” value in assay [1] is listed as 27.9%. In assay [2], the “Trolox μmol equivalents/mL” value was 0.104 Trolox μmol equivalents/mL. The “Melanin production Inhibition rate (%)” value with MNT-1 melanoma cells was 17.5%.
Taken in the same sequence, the figures for `CC[C@H](CC[C@@H](C)[C@H]1CC[C@H]2[C@@H]3CC=C4C[C@@H](O)CC[C@]4(C)[C@H]3CC[C@]12C)C(C)C` [compound 3, Beta-sitosterol] were −3.0%, 2.4%, 0.051 Trolox μmol equivalents/mL and 1.7%.
As for `COc1cc(/C=C/C(=O)O)ccc1O` [compound 2, Ferulic acid], the “Hyaluronic acid Production rate (%)” value in the assay on Human skin keratinocytes turned out to be 32.2%. The “Collagen Production rate (%)” value in assay [1] came to 8.8%. Also, the “Trolox μmol equivalents/mL” value in assay [2] is 0.981 Trolox μmol equivalents/mL. The “Melanin production Inhibition rate (%)” value in the assay on MNT-1 melanoma cells was found to be 16.3%.
